According to patent US20080287467A1, “Therapeutic Agent for Respiratory Diseases” (priority 2004, published 2008):
Read-outs that look alike come from different tables or passages of the source.

Tested on: swine bronchial smooth muscle cells
Assay: Patch cramp (whole-cell) measurement of membrane current and membrane potential, ATP-induced inward current
Type: cell-based
Source text: In the present specification, the patch cramp method is a method including allowing a glass micropipette (patch electrode) to attach tightly to cell membrane at a high resistance in giga-ohms (GΩ) or more and then measuring ion currents in conditions that a very small membrane region (patch membrane) on the top opening of the electrode is electrically isolated from other regions. In particular, the inventors measured and analyzed electric currents by the whole-cell mode including opening a hole by breaking the patch membrane to record ion current flowing through the whole cell membrane except the broken patch membrane.
Swine bronchial smooth muscle tissue was finely chopped and incubated at 37° C. for 40 minutes, using collagenase and papain, to isolate the cells.

Cc1nc(N=Nc2ccc(S(=O)(=O)O)cc2S(=O)(=O)O)c(COP(=O)(O)O)c(C=O)c1O [PPADS, pyridoxal phosphate-6-azophenyl-2′,4′-disulfonic acid]
suppression of the ATP-induced inward current (concentration not given): No suppression

COc1ccc2c(c1)CC[C@@H]1[C@@H]2CC[C@]2(C)[C@@H](NCCCCCCN3C(=O)C=CC3=O)CC[C@@H]12 [U-73122]
suppression of the ATP-induced inward current (treatment with 100 μM, subsequent ATP dosing): no suppression

ivermectin
enhancement of the ATP-induced inward current (FIG. 2): 3.5 fold

Cc1ccc(C(=O)Nc2ccc(S(=O)(=O)O)c3cc(S(=O)(=O)O)cc(S(=O)(=O)O)c23)cc1NC(=O)c1cccc(NC(=O)Nc2cccc(C(=O)Nc3cc(C(=O)Nc4ccc(S(=O)(=O)O)c5cc(S(=O)(=O)O)cc(S(=O)(=O)O)c45)ccc3C)c2)c1 [suramin]
suppression of the ATP-induced inward current (concentration not given): No suppression

Nc1ncnc2c1ncn2[C@@H]1O[C@H](COP(=O)(O)OP(=O)(O)OP(=O)(O)O)[C@@H](O)[C@H]1O [ATP, adenosine-5′-triphosphate]
cellular membrane potential after depolarization due to ATP (electric current fixed, depolarized from −40 mV): −20 mV
membrane current on ATP administration (membrane potential maintained at −40 mV): inward current passed

COc1ccc(CCCOC(Cn2ccnc2)c2ccc(OC)cc2)cc1 (stereo not shown) [SKF 96365]
suppression of the ATP-induced inward current: about 50%
